This is an account of results in US20090075888A1, “Cardiovascular and Brain Cell Therapy Using Intracellular Ryanodine Receptor Modulation by the Estrogen Receptor Beta” (University of North Texas Health Science Center at Fort …, priority 2007, published 2009).

The assay deals with mouse brain RyR2 (Mus musculus, UniProt E9Q401). Put plainly: Single-channel current recordings of RyR2 incorporated in artificial lipid bilayer.
Chain of mouse brain RyR2 (E9Q401 whole entry): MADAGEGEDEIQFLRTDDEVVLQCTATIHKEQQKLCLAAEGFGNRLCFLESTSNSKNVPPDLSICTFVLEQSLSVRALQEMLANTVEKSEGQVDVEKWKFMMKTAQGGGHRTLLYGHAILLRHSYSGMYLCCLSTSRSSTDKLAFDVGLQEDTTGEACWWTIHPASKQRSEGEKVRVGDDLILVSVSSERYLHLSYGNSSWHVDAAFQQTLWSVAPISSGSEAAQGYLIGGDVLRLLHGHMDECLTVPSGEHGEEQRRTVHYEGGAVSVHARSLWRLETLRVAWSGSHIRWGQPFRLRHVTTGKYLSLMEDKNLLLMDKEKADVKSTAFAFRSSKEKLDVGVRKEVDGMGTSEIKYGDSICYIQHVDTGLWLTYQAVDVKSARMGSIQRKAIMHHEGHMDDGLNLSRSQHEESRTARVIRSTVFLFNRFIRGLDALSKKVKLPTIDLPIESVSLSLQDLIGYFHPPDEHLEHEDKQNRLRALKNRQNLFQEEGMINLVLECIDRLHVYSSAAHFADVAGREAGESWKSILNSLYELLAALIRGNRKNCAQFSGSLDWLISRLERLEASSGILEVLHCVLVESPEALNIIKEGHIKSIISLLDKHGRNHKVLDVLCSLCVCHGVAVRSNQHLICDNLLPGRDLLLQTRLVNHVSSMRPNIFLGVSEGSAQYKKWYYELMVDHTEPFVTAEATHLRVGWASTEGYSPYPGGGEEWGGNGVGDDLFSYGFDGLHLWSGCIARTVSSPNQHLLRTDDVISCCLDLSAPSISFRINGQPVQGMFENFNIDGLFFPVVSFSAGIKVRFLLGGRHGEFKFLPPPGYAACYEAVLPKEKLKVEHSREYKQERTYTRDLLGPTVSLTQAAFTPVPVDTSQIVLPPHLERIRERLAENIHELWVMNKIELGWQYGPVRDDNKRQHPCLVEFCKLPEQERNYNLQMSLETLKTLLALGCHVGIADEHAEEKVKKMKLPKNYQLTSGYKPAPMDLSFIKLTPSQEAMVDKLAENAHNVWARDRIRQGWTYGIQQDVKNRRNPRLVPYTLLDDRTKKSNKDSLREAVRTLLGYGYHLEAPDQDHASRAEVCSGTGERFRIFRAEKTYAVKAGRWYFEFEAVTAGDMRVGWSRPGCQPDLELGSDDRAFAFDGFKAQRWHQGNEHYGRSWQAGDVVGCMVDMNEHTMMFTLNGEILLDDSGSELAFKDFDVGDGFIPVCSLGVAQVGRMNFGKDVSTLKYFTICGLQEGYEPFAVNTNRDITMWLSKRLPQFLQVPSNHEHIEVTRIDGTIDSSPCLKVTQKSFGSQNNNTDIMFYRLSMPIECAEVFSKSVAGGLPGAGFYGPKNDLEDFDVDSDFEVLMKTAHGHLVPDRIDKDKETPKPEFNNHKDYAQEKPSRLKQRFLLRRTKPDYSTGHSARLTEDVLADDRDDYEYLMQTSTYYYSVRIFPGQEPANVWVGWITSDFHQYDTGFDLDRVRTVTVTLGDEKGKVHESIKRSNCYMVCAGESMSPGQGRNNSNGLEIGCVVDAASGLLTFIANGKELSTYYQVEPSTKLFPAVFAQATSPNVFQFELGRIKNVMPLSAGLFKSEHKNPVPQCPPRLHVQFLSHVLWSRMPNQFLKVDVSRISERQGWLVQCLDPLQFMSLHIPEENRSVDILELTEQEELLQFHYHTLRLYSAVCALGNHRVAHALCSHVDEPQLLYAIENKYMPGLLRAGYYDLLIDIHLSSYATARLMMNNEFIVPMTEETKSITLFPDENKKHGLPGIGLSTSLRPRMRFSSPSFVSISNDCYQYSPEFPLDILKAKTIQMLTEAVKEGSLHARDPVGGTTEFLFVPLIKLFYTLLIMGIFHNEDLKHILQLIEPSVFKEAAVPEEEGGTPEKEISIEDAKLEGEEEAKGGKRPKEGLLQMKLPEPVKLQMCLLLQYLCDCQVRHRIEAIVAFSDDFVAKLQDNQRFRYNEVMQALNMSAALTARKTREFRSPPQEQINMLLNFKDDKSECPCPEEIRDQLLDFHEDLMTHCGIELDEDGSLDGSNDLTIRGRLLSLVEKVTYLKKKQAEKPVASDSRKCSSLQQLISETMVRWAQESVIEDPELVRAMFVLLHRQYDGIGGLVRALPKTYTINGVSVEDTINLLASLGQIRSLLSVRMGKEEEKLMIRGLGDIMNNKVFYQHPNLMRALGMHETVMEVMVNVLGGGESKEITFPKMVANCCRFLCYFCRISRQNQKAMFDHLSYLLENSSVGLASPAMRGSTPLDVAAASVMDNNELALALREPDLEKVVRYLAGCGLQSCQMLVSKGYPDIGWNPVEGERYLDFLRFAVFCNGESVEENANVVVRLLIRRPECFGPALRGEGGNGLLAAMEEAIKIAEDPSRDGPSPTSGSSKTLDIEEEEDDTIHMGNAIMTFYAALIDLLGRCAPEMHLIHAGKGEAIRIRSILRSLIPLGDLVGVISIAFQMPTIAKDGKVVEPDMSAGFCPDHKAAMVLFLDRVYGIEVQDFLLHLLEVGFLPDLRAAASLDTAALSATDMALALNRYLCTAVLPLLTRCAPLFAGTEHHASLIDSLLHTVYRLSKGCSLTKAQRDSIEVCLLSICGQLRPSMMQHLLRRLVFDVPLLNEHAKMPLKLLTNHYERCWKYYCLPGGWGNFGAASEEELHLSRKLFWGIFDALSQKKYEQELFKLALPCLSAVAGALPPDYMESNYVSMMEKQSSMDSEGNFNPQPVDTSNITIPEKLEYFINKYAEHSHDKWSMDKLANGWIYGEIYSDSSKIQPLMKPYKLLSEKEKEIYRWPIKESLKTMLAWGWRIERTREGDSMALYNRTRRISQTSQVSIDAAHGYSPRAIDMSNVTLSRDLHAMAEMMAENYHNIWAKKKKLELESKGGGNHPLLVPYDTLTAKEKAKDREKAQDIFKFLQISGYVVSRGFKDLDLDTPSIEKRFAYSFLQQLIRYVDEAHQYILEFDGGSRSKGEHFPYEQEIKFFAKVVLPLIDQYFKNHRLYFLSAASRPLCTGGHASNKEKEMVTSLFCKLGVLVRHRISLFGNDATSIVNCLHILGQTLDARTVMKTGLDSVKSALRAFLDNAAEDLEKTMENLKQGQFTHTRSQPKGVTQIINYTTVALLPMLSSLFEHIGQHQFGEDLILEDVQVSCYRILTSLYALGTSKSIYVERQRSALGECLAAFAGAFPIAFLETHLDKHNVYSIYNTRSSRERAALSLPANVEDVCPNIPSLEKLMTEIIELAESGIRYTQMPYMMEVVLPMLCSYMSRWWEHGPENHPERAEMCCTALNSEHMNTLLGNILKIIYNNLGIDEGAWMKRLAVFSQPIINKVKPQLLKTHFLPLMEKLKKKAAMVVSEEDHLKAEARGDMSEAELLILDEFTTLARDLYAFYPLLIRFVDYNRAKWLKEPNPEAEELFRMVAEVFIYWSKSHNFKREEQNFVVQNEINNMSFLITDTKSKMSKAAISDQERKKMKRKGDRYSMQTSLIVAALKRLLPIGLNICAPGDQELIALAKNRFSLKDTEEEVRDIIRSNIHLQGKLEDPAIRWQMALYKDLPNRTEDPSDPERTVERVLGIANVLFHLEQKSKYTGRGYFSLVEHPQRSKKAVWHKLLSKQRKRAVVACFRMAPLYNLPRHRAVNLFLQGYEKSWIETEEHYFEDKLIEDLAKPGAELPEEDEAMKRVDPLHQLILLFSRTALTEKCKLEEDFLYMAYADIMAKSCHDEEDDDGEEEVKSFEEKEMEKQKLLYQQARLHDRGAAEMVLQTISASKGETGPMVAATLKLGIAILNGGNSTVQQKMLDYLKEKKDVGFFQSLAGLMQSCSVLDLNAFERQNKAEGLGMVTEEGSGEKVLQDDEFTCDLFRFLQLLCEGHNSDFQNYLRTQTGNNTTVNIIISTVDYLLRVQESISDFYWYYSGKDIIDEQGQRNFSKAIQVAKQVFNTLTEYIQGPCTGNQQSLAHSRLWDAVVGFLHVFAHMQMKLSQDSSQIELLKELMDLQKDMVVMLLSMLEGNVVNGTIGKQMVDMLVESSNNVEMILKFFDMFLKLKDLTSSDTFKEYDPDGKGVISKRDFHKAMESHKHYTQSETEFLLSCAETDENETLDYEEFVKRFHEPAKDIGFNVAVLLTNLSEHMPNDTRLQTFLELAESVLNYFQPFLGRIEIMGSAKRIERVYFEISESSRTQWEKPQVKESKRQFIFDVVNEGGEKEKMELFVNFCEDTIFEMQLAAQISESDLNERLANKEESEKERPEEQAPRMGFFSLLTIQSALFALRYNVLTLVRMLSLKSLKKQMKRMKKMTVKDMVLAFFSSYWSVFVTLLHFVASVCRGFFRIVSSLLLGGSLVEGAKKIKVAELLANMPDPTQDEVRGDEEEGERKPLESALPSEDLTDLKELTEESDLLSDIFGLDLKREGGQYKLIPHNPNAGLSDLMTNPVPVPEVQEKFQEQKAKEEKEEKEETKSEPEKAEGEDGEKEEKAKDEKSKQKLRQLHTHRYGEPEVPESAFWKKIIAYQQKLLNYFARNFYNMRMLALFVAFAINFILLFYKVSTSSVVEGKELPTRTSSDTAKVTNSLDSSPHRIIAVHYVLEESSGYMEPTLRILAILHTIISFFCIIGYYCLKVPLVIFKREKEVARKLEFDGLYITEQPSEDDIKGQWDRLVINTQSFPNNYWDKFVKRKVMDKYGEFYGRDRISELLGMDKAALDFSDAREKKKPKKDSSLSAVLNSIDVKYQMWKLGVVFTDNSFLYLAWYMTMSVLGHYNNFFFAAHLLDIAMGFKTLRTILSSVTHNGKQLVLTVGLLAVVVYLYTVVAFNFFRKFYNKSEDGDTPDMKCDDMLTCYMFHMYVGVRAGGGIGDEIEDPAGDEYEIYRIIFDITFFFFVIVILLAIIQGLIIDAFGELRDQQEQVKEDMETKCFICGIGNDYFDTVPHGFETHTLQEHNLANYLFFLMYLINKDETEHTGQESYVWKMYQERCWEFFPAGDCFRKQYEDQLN

Regarding `N.N.N.N.N.N.N.N.N.N.N.N.N.N.[Cl-].[Cl-].[Cl-].[Cl-].[Cl-].[Cl-].[O-2].[O-2].[Ru+3].[Ru+3].[Ru+4]` [Ruthenium Red], the “block of ERβ-activated RyR2 single channel currents” value (20 μM Ruthenium Red after ERβ (FIG. 1A)) is recorded as “blocked”. Besides, the RyR channel block result (25 μM ruthenium red after ERβ (FIG. 10A, 11A)) was “complete channel block”.
